Holding throughout (type): cell-based
In assay [1] the test system is MDA-MB-231 cells. Kind of assay: 2D cell viability assay (alamarBlue), MDA-MB-231. The settings on record: MDA-MB-231, 72 h. (Resazurin is reduced to fluorescent resorufin, in cell work by metabolically active cells.)
Assay [2] has as its system MIA PaCa-2 cells. Kind of assay: 2D cell viability assay (alamarBlue), MIA PaCa-2. The conditions noted are these: MIA PaCa-2, 72 h.
Assay [3] has as its system pERK/ERK in MIA PaCa-2 cells. Kind of assay: Western blot of MAPK signaling output (pERK/ERK).
Assay [4] concerns HEK-293 EBNA cells. Kind of assay: 2D cell viability assay (alamarBlue), HEK-293 EBNA. The settings on record: 72 h.
The subject of assay [5] is H-RasG12V (Rluc8-/GFP2-tagged) in HEK-293 EBNA cells. Kind of assay: H-RasG12V nanoclustering-BRET assay. The settings on record: for H-RasG12V BRET: compounds 20 μM, FTI-277 1 μM, OphA 2.5 μM, 24 h. In general terms: In BRET a luciferase serves as donor, and the signal depends on an acceptor being close.
Assay [6] relates to NCI-H358 (KRAS-G12C) 3D spheroids. Kind of assay: 3D spheroid formation assay (alamarBlue), NCI-H358. The conditions noted are these: read-out: IC50 values. How it is done: (§1) 3D spheroid formation assays were performed in 96-well low-attachment, suspension culture plates (cat. no. 655185, Cellstar, Greiner Bio-One) under serum free conditions. About 1000 cells per well were seeded in 50 μL RPMI medium (cat. no. 52400–025, Gibco, ThermoFisher Scientific) containing 0.5% (v/v) MethoCult (cat. no. SF H4636, Stemcell technologies), 1X B27 (cat. no. 17504044, Gibco, ThermoFisher Scientific), 25 ng/mL EGF (cat. no. E9644, Sigma-Aldrich) and 25 ng/ mL FGF (cat. no. RP-8628, ThermoFisher Scientific). Cells were cultured for 3 days and then treated with compounds or vehicle control (DMSO 0.1% (v/v) in growth medium) for another 3 days. The cells were supplemented with fresh growth medium on the third day together with the drug treatment. Spheroid formation efficiency was analyzed by alamarBlue assay reagent (cat. no. DAL1100, ThermoFisher Scientific).
(§2) A 10% (v/v) final volume of alamarBlue reagent was added to each well of the plate and incubated for 4 h at 37°C. Then the fluorescence intensity (λexcitation 560 ± 5 nm and λemission 590 ± 5 nm) was measured using the FLUOstar OPTIMA plate reader (BMG Labtech, Germany).
(§3) (A) Heatmap of ATARiS gene sensitivity scores of two KRAS dependent cell lines (NCI-H358 and MDA-MB-231) and a BRAF dependent cell line (A375). Negative values (shaded red) indicate sensitivity of the cell line proliferation to the knockdown of shown genes, whereas positive scores (shaded blue) indicate insensitivity. (B) IC50 values for indicated compounds in Ras pathway mutant cell lines NCI-H358, MDA-MB231 and A375 grown as 3D spheroids under serum free conditions. […] Statistical comparisons were done using the average values across all three cell lines. […] Positive scores indicate synergistic drug interactions whereas negative scores would denote antagonistic drug interactions. A score of zero would indicate no antagonistic or synergistic effect. (D) Flow cytometric analysis of apoptosis in MDA-MB-231 cells. […] Benzethonium chloride and DMSO treated cells were used as positive and negative controls, respectively, for setting the gates. Percentage of total apoptotic cells (early and late stage) from two biological repeats (mean ± SD) is presented. Statistical analysis was performed using Fisher’s exact test comparing the total number of viable and apoptotic cells from two biological repeats. (E) Effect of inhibitors on cellular apoptosis studied using Caspase-3/7Glo assay. […] The caspase-3/7 activity was measured as a luminescence read-out and normalized to the vehicle control, 0.05% (v/v) DMSO. […] GAPDH detection was used as loading control.

Assay [7] relates to caspase-3/7 activity in MDA-MB-231 cells. Kind of assay: Caspase-3/7Glo assay. The conditions noted are these: 24 h.
From the text: as §3, with “Negative” for “(A) Heatmap of ATARiS gene sensitivity scores of two KRAS dependent cell lines (NCI-H358 and MDA-MB-231) and a BRAF dependent cell line (A375). Negative”

Assay [8] relates to c-MYC in MDA-MB-231 cells. Kind of assay: Western blot of c-MYC expression. The conditions noted are these: 24 h.
Assay [9] concerns MDA-MB-231 (KRAS-G13D) 3D spheroids. Kind of assay: 3D spheroid formation assay (alamarBlue), MDA-MB-231. The settings on record: read-out: IC50 values. How it is done:
as §1, §2, §3

For assay [10], the system named is K-RasG12V (Rluc8-/GFP2-tagged) in HEK-293 EBNA cells. Kind of assay: K-RasG12V nanoclustering-BRET assay. The conditions noted are these: for effect on the RasG12V-BRET signals (in words): K-RasG12V and H-RasG12V biosensors; for K-RasG12V BRET: compounds 20 μM, FTI-277 1 μM, OphA 2.5 μM, 24 h.
Assay [11] deals with A375 (BRAF-V600E) 3D spheroids. Kind of assay: 3D spheroid formation assay (alamarBlue), A375. The procedure:
as §1, §2, §3

The test system of assay [12] is MDA-MB-231 cells. Kind of assay: Flow cytometry-based apoptosis assay (Annexin V-FITC / 7-AAD). The conditions noted are these: for apoptotic cells (%): DT-061 10 μM, calmidazolium 5 μM or combination, 24 h. How it is done: MDA-MB-231 cells were grown for 24 h in complete RPMI medium. The next day the cells were treated with inhibitors for 24 h. […] The cells were labelled using the Annexin V-FITC / 7-AAD apoptosis-detection kit (Beckman-Coulter, cat. no. B60224-AB) according to the manufacturer’s instruction.
as §3, with “Negative” for “(A) Heatmap of ATARiS gene sensitivity scores of two KRAS dependent cell lines (NCI-H358 and MDA-MB-231) and a BRAF dependent cell line (A375). Negative”
Background: In flow cytometry, cells or beads pass a laser one at a time.

Where [13] appears, read: MIA PaCa-2 + EGF, 2 h, trametinib 1 μM, AMG-510 1 μM, calmidazolium 20 μM, DT-061 20 μM, combination each 10 μM, fluphenazine mustard 20 μM, replicates N1-N3.
The mark [14] stands for this setting: MIA PaCa-2 + EGF, same treatments, mean.
The mark [15] stands for this setting: H-RasG12V nanoclustering-BRET dose response (0.1–80 μM; OphA 0.3–20 μM), replicates.
[16] abbreviates: H-RasG12V nanoclustering-BRET, mean.
Setting [17] is: DT-061 5 μM, calmidazolium 5 μM, combination 5 μM each, staurosporine 1 μM, normalized to DMSO, replicates.
Setting [18] is: 10 μM, MDA-MB-231, replicates N1-N4.
Setting [19] is: 20 μM, MDA-MB-231, replicates N1-N4, values marked * excluded.
Where [20] appears, read: K-RasG12V nanoclustering-BRET dose response (0.1–80 μM; OphA 0.3–20 μM), replicates.
Where [21] appears, read: K-RasG12V nanoclustering-BRET, mean.

“And” between values parts separate entries of the source, which are not always exact repeats. Equal entries are not always repeated. Where two headings read alike, the source gives them in different places.

Consider `C=CC(=O)N1CCN(c2nc(=O)n(-c3c(C)ccnc3C(C)C)c3nc(-c4c(O)cccc4F)c(F)cc23)[C@@H](C)C1` [AMG-510], for which the “2D monolayer DSS3” value was 4.2 in assay [1] (Mean); 1.7 and 3 and 7.9 in [1] (replicates N1-N3); 64.97 in [2] (Mean); 62.6 and 65 and 67.3 in [2] (replicates N1-N3); 15.93 in assay [4] (Mean); 22.8 and 12.8 and 12.2 in assay [4] (replicates N1-N3). Also, the “potency relative to Flu-M in MAPK-signaling (pERK) inhibition” value in assay [3] (MIA PaCa-2) was “at least 20 times”. Also, the “normalized pERK/ERK ratio %” value was 29.0898% and 30.5706% and 27.2049% in [3] (setting [13]); 28.96% in assay [3] (setting [14]).
Consider `O=S(=O)(N[C@@H]1CCC[C@H](N2c3ccccc3Oc3ccccc32)[C@H]1O)c1ccc(OC(F)(F)F)cc1` [DT-061], for which the “DSS3 BRET score” value is 0.2 and 0.4 in [5] (setting [15]); 0.3 in assay [5] (setting [16]); 0.6 and 1 in assay [10] (setting [20]); 0.8 in assay [10] (setting [21]). For the same compound, the “H-RasG12V BRET” value in assay [5] (A/D plasmid ratio 4/1, individual replicates N1.1-N2.4) was 100.79 and 100.058 and 101.294 and 101.06 and 100.674 and 100.693 and 99.8758 and 99.7238; in [5] (mean), 100.52. The IC50 in assay [6] (Homo sapiens, NCI-H358, 72 h, NCI-H358 3D spheroids, serum free, 3 days treatment, replicates N1, N2) was 2400 nM; in assay [6] (Homo sapiens, NCI-H358, NCI-H358 3D spheroids, Mean, n = 2) it was 2650 nM; in assay [6] (NCI-H358 3D spheroids, serum free, 3 days treatment, replicates N1, N2), 2890 nM; in assay [9] (Homo sapiens, MDA-MB-231, 72 h, MDA-MB-231 3D spheroids, serum free, 3 days treatment, replicates N1, N2) it was 3000 nM; in assay [9] (Homo sapiens, MDA-MB-231, MDA-MB-231 3D spheroids, Mean, n = 2), 3050 nM; in [9] (MDA-MB-231 3D spheroids, serum free, 3 days treatment, replicates N1, N2), 3100 nM. Moreover, the IC50 in assay [11] (A375 3D spheroids, serum free, 3 days treatment, replicates N1, N2) was 2700 nM; in assay [11] (Homo sapiens, A-375, 72 h, A375 3D spheroids, serum free, 3 days treatment, replicates N1, N2), 1500 nM; in assay [11] (Homo sapiens, A-375, A375 3D spheroids, Mean, n = 2) it was 2100 nM. The “caspase 3/7 activity (fold change)” value in assay [7] (setting [17]) is 0.9556 fold change and 1.016 fold change; in assay [7] (same treatments, mean), 0.99 fold change. Besides, the c-MYC/Vinculin relative expression in [8] (setting [18]) was 1.352 and 1.842 and 0.8895 and 1.57; in assay [8] (10 μM, Mean (DMSO 1.78)), 1.41; in assay [8] (setting [19]) it was 1.784* and 1.955* and 0.7599 and 0.9549; in assay [8] (20 μM, Mean (DMSO 1.48)), 0.86. Besides, in assay [10], the “effect on the RasG12V-BRET signals (in words)” value is given as “Neither the PP2A activator DT-061, nor Flu had an effect”. Further, the “K-RasG12V BRET” value in assay [10] (A/D plasmid ratio 4/1, individual replicates N1.1-N3.4) is 102.439 and 101.315 and 102.277 and 100.953 and 98.6605 and 100.047 and 101.073 and 97.4843; in [10] (mean), 100.53. Further, the “normalized pERK/ERK ratio %” value in assay [3] (setting [13]) is 84.4108% and 54.7097% and 80.94%; in [3] (setting [14]), 73.35%. In addition, the “apoptotic cells (%)” value in assay [12] (early and late stage, replicates N1, N2) was 17.3843% and 7.228%; in assay [12] (mean) it was 12.31%. Besides, the apoptotic cell population in assay [12] (MDA-MB-231, 24 h) is on record as 12%.
For `FC(F)(F)c1ccc2c(c1)N(CCCN1CCN(CCCl)CC1)c1ccccc1S2` [fluphenazine mustard], the “DSS3 BRET score” value in assay [5] (setting [15]) was 13.1 and 5.3 and 9.9 and 9.6; in [5] (setting [16]), 9.48; in assay [10] (setting [20]), 17.9 and 3.8 and 4.3 and 7 and 12.9; in [10] (setting [21]) it was 9.18. Further, the “H-RasG12V BRET” value in assay [5] (mean) was 65.64. For the same compound, the “2D monolayer DSS3” value in assay [1] (Mean) is 32.27; in assay [1] (replicates N1-N3) it was 27.5 and 31.9 and 37.4; in assay [2] (Mean), 65.73; in assay [2] (replicates N1-N3), 64.1 and 65.3 and 67.8; in assay [4] (Mean), 5.4; in [4] (replicates N1-N3), 6.1 and 5.1 and 5. Also, the c-MYC/Vinculin relative expression was 0.7502 and 0.7758 and 0.7975 and 1.298 in assay [8] (setting [18]); 0.91 in [8] (10 μM, Mean (DMSO 1.78)); 1.798* and 1.478 and 1.405 and 0.9115 in assay [8] (setting [19]); 1.26 in assay [8] (20 μM, Mean (DMSO 1.48)). Moreover, the “effect on the RasG12V-BRET signals (in words)” value in assay [10] is “even stronger effect than CMZ”. Moreover, in assay [10] (mean), the “K-RasG12V BRET” value came to 72.64. Besides, the “normalized pERK/ERK ratio %” value in assay [3] was 46.7324% and 34.232% and 39.0258%; in assay [3] (setting [14]), 40%.
Turning to `CN[C@@H]1C[C@H]2O[C@@](C)([C@@H]1OC)n1c3ccccc3c3c4c(c5c6ccccc6n2c5c31)C(=O)NC4` [staurosporine], the “caspase 3/7 activity (fold change)” value in [7] (setting [17]) is 5.7754 fold change and 5.5715 fold change and 6.4904 fold change and 6.254 fold change; in assay [7] (same treatments, mean) it was 6.02 fold change.

The IC50 is the point on the concentration scale where inhibition reaches its midpoint.

Source of the values: PMC9135253, “Potential of phenothiazines to synergistically block calmodulin and reactivate PP2A in cancer cells” (PLoS ONE, 2022).
